Assays:
[1] = tested on: BRCA1 mRNA expression in MDA-MB-231 cells; assay: qRT-PCR assay: inhibition of BRCA1 mRNA expression in MDA-MB-231 cells; type: cell-based; conditions: Homo sapiens, 24 h exposure, BRCA1 normalised to GAPDH, median, read-out: RTqPCR-MDA-MB-231, IC50 [mol/l], BRCA1 (median)
Procedure: 3. qRT-PCR Assay: BRCA1, ATR, MCL1 in MDA-MB-231, CAL-120
Tissue cultured human MDA-MB-231 human breast cancer cells were plated in 500 microL per well at 200,000 cells/well in a 24 well microtiter plate. After 24 h, the cells were exposed continuously for 24 h to test substances (substances were added with Tecan HP D300 Dispenser). RNA was prepared using Qiagen RNeasy MiniKit (#74106), RNA was quantified using a NanoDrop Equipment, and 600 nano grams of RNA was converted to cDNA using a SuperScript VILO kit (Thermofisher #11755050) followed by qPCR amplification. BRCA1 and ATR gene expression was measured by RT-qPCR and normalised to GAPDH housekeeping gene expression. qPCR primer sets have been purchased from Thermo Fisher Scientific/Applied Biosystems: BRCA1, #Hs 01556193; ATR. #Hs 00992123: GAPDH. #Hs 03929097.

[2] = tested on: MDA-MB-231, human breast cancer cells; assay: Proliferation assay MDA-MB-231 (crystal violet); type: cell-based; conditions: 96 h, MDA-MB-231 parental cells, 4 days, median, read-out: Prolif-MDA MB-231, IC50 - [mol/l] (median)
Procedure: (§1) Human tumour cells were originally obtained from the American Type Culture Collection (ATCC), or from the Deutsche Sammlung von Mikroorganismen und Zellkulturen (DSMZ, German Collection of Microorganisms and Cell Cultures). Cultivated tumour cells (CAL-120, human breast adenocarcinoma cells, DSMZ ACC-459; MDA-MB-231, human breast cancer cells, ATCC HTB-26) were plated at a density of 4,000 cells/well in a 96-well multitier plate in 200 microL of their respective growth medium supplemented 10% fetal calf serum. After 24 hours, the cells of one plate (zero-point plate) were stained with crystal violet (see below), while the medium of the other plates was supplemented with the test substances in various concentrations (0 micromol/L, as well as in the range of 0.01-10 micromol/L; the final concentration of the solvent dimethyl sulfoxide was adjusted to 0.1%) using a Tecan HP D300 Digital Dispenser. The cells were incubated for 4 days in the presence of test substances. Cell proliferation was determined by staining the cells with crystal violet: the cells were fixed by adding 20 microL/measuring point of an 11% glutaric aldehyde solution for 15 minutes at room temperature. After three washing cycles of the fixed cells with water, the plates were dried at room temperature. The cells were stained by adding 100 microL/measuring point of a 0.1% crystal violet solution (pH 3.0). After three washing cycles of the stained cells with water, the plates were dried at room temperature. The dye was dissolved by adding 100 microL/measuring point of a 10% acetic acid solution. The extinction was determined by photometry at a wavelength of 595 nm. The change of cell number, in percent, was calculated by normalization of the measured values to the extinction values of the zero-point plate (=0%) and the extinction of the untreated (0 μM) cells (=100%). The IC50 values (inhibitory concentration at 50% of maximal effect) were determined by means of a 4 parameter fit.

[3] = tested on: CAL-120, human breast adenocarcinoma cells; assay: Proliferation assay CAL-120 (crystal violet); type: cell-based; conditions: 96 h, CAL-120 parental cells, 4 days, median, read-out: Prolif-CAL-120, IC50 - [mol/l] (median)
Procedure: as §1

[4] = molecular target: CDK12 (Homo sapiens (Human), UniProt Q9NYV4); assay: CDK12 nuclear protein level: immunofluorescence/high content analysis in CAL-120 cells; type: cell-based; conditions: 24 h, nuclear CDK12 staining intensity, median, read-out: CDK12 degradation IF, DC50 - [mol/l] (median)
Chain of CDK12 (Q9NYV4 whole entry): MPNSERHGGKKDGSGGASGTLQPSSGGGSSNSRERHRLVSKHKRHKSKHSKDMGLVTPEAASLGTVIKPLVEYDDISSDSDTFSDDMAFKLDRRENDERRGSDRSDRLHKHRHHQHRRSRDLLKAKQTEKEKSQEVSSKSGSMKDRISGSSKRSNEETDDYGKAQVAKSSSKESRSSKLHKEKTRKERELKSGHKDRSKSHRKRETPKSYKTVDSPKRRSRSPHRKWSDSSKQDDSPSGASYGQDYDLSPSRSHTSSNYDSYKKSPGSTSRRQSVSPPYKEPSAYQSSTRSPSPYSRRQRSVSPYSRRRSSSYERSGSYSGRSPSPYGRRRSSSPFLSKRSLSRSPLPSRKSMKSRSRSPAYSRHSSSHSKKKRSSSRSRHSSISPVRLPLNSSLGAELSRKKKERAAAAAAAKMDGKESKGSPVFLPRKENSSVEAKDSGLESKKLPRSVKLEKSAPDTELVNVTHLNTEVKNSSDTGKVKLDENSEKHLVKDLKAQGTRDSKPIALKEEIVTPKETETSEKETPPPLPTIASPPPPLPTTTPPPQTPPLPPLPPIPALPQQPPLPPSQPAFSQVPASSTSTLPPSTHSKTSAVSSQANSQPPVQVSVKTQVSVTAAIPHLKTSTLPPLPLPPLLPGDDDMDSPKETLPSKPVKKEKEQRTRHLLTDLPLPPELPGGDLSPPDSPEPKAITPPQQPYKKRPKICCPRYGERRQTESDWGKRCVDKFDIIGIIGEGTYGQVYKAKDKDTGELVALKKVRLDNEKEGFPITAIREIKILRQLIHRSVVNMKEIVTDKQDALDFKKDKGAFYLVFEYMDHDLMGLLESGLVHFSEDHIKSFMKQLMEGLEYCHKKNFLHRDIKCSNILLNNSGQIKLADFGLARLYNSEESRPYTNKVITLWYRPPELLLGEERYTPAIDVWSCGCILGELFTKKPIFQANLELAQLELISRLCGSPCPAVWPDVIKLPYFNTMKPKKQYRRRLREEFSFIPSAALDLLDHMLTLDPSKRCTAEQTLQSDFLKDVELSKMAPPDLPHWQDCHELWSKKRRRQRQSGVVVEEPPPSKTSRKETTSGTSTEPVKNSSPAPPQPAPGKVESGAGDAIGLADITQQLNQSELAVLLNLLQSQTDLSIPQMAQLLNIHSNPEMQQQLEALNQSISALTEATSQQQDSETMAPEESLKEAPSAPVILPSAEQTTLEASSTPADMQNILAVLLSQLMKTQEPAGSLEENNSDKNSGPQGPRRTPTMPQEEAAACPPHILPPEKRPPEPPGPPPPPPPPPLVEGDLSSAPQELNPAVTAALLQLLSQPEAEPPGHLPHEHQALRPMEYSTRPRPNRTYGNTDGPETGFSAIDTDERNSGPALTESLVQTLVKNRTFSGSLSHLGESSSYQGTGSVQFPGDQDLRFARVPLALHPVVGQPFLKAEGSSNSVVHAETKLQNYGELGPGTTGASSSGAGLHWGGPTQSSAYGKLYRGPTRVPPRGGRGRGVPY
Chain of CDK12 (O75909 whole entry partner): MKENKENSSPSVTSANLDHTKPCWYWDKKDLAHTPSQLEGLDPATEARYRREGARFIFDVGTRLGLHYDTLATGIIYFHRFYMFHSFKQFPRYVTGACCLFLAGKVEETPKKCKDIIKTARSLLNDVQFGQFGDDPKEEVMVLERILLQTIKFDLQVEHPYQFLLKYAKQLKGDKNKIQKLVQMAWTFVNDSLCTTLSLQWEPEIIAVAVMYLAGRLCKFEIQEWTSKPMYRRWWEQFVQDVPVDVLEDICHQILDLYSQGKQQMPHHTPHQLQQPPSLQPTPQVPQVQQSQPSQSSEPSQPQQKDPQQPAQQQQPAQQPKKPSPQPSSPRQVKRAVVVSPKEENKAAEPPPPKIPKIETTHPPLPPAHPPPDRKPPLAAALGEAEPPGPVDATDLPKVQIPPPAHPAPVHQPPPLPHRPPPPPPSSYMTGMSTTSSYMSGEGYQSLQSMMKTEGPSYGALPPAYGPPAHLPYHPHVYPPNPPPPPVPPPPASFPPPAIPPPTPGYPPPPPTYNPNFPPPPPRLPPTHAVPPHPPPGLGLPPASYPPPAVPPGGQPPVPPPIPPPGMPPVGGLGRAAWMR
Procedure: In the context of the present invention, the term “DC50 CDK12” refers to the DC50 values obtained according to the assay described in this section (7) herein below, i.e. the DC50 values for the degradation of CDK12.
(§2) CAL-120 human breast cancer cells (DSMZ ACC 459) are seeded in 1536-well microtiter plates (800 cells per well) containing 50 nanoL of compounds in Dose-Response. Control wells received DMSO or Example 4. Plates are then incubated for 24 h at 37° C. in an humidified incubator and fixed with 4% PFA for 10 min. Then immunofluorescence (IF) against CDK12 (CellSignalling CDK12 Antibody #11973, rabbit, 1:100 dilution) is performed using standard IF protocols. Cells are then stained with Hoechst 33342 (Life Technologies, H-1399, 0.1 microg/ml) and imaged on an automated confocal microscopy system (e.g. Perkin Elmer Opera Phenix). Nuclear and cytoplasmic intensity as well as the nuclear/cytoplasmic intensity ratio is determined by automated image analysis using custom generated scripts (MetaXpress). Data is then transferred to Genedata Screener software, normalized to DMSO and control and DC50 values (degrading concentration to achieve 50% reduction of nuclear CDK12 staining intensity relative to controls) are reported.

[5] = tested on: MDA-MB-231-CDK12d-res; assay: Proliferation assay CDK12 degrader resistant MDA-MB-231; type: cell-based, human
Text: (§3) CDK12-degrader resistant cells were generated by propagation of CAL-120 human breast adenocarcinoma cells (DSMZ ACC-459) and MDA-MB-231 human breast cancer cells (ATCC HTB-26) in presence of increasing concentrations of the CDK12 degrader compound example 4 from WO 2021/116178. Initial concentrations of example 4 were 2.0E-08 M for CAL-120 cells and 4.6E-08 M for MDA-MB-231 cells, corresponding to ca. 2-fold the IC50 of inhibition of the cells in an proliferation assay. After the treated cells recovered and proliferated again the concentration of compound example 4 was increased to 3-fold IC50.
as §1, with “To determine the inhibitory effect of test compounds on proliferation of CAL-120-CDK12d-res, MDA-MB-231-CDK12d-res the” for “Human tumour”, “cells” for “cells were originally obtained from the American Type Culture Collection (ATCC), or from the Deutsche Sammlung von Mikroorganismen und Zellkulturen (DSMZ, German Collection of Microorganisms and Cell Cultures). Cultivated tumour cells (CAL-120, human breast adenocarcinoma cells, DSMZ ACC-459; MDA-MB-231, human breast cancer cells, ATCC HTB-26)”

[6] = tested on: CAL-120-CDK12d-res; assay: Proliferation assay CDK12 degrader resistant CAL-120; type: cell-based, human
Text: as §3
as §1, with “To determine the inhibitory effect of test compounds on proliferation of CAL-120-CDK12d-res, MDA-MB-231-CDK12d-res the” for “Human tumour”, “cells” for “cells were originally obtained from the American Type Culture Collection (ATCC), or from the Deutsche Sammlung von Mikroorganismen und Zellkulturen (DSMZ, German Collection of Microorganisms and Cell Cultures). Cultivated tumour cells (CAL-120, human breast adenocarcinoma cells, DSMZ ACC-459; MDA-MB-231, human breast cancer cells, ATCC HTB-26)”

[7] = tested on: CYCLIN K; assay: CYCLIN K nuclear protein level: immunofluorescence/high content analysis in CAL-120 cells; type: cell-based, human; conditions: 24 h, nuclear CCNK staining intensity, median, read-out: CYCLIN K degradation IF, DC50 - [mol/l] (median)
Procedure: as §2, with “CYCLIN K (ThermoFisher Scientific CCNK” for “CDK12 (CellSignalling CDK12”, “#PA5-85020,” for “#11973,”, “1:200” for “1:100”, “CCNK” for “CDK12”

DC50 [4] | IC50 ([5]; Homo sapiens, 96 h, CDK12 degrader resistant MDA-MB-231 cells, 4 days, median, read-out: Prolif-MDA MB-231-CDK12d-res, IC50 - [mol/] (median)) | DC50 [7] | SMILES | IC50 [1] | IC50 [2] | IC50 [3] | Ratio (Prolif-MDA MB-231-CDK12d-res IC50 / Prolif-MDA MB-231 IC50) ([5]; resistant versus parental MDA-MB-231 cells) | IC50 ([6]; Homo sapiens, 96 h, CDK12 degrader resistant CAL-120 cells, 4 days, median, read-out: Prolif-CAL-120-CDK12d-res, IC50 - [mol/l] (median)) | Ratio (Prolif-CAL-120-CDK12d-res IC50 / Prolif-CAL-120 IC50) ([6]; resistant versus parental CAL-120 cells)
120 nM | – | – | COc1ccc(-c2cnc(CNc3nc(N4CCOCC4)nn4c(C(F)(F)F)cnc34)[nH]2)cc1 [Example 13, N-{[5-(4-methoxyphenyl)-1H-imidazol-2-yl]methyl}-2-(morpholin-4-yl)-7-(trifluoromethyl)imidazo[2,1-f][1,2,4]triazin-4-amine] | 57.1 nM | 85.9 nM | 29.2 nM | – | – | –
> 1000 nM | – | – | FC(F)(F)c1ccc(-c2nnc(CNc3nc(N4CCOCC4)nc4c(C(F)(F)F)cnn34)[nH]2)cn1 [Example 16, 2-(morpholin-4-yl)-8-(trifluoromethyl)-N-({5-[6-(trifluoromethyl)pyridin-3-yl]-4H-1,2,4-triazol-3-yl}methyl)pyrazolo[1,5-a][1,3,5]triazin-4-amine] | – | 179 nM | 211 nM | – | – | –
> 1000 nM | 156 nM | > 1000 nM | FC(F)(F)Oc1ccc(-c2nnc(CNc3nc(N4CCOCC4)nc4c(C(F)(F)F)cnn34)[nH]2)cn1 [Example 17, 2-(morpholin-4-yl)-N-({5-[6-(trifluoromethoxy)pyridin-3-yl]-4H-1,2,4-triazol-3-yl}methyl)-8-(trifluoromethyl)pyrazolo[1,5-a][1,3,5]triazin-4-amine] | – | 112 nM | 88.1 nM | 1.4 | 134 nM | 1.5

— patent US20250066370A1, “BICYCLIC TRIAZINE DERIVATIVES FOR THE TREATMENT OF CANCER” (DEUTSCHES KREBSFORSCHUNGSZENTRUM, priority 2022, published 2025)
